Assay results as given in patent US20250161271A1, “PHARMACEUTICAL COMPOSITION FOR TREATING CANCER, COMPRISING ANTICANCER AGENT AND NOVEL COMPOUND HAVING INHIBITORY ACTIVITY WITH RESPECT TO PROSTAGLANDIN E2 RECEPTORS” (KANAPH THERAPEUTICS INC., priority 2022, published 2025).
Blank lines part the entries; values can stand above or below the compound they belong to.

Legend:
hEP4 = molecular target: T1, hEP4 (Homo sapiens, UniProt P35408); experiment: hEP4 cAMP assay; type: cell-based; details: HEK293 cells overexpressing hEP4; PGE2 20 nM as agonist; median of multiple experiments; read-out: IC50 (nM) EP4 cAMP
T1 construct: expressed in transfected cells; host or cells: HEK293
T1 sequence (P35408 whole entry): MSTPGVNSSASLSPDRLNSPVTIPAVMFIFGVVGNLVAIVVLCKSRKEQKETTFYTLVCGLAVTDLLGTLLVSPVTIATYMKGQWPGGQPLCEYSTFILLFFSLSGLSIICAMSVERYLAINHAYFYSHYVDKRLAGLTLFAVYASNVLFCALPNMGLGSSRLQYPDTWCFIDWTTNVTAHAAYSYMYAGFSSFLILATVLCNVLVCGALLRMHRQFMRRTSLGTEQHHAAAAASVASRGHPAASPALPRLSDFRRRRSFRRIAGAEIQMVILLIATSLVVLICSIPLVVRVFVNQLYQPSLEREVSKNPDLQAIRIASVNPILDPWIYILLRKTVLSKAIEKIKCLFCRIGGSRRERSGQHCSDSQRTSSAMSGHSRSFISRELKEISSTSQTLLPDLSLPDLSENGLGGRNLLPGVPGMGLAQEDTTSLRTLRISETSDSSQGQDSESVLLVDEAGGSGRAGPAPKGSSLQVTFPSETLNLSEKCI
Procedure: Experimental Example 1.2: hEP4 cAMP Assay
(§1) HEK293 cells overexpressing hEP4 were cultured in growth medium (GM:MEM (Gibco™, 11095080)/10% HI FBS (Gibco™, 10082147)/1% penicillin/streptomycin). Before the experiment, the growth medium was removed, and starvation medium (HBSS (Gibco™ 14025076)/10% GM) was added. Thereafter, the cells were incubated for 4 hours. HEK293 cells harboring hEP4 were detached from the culture dish with a non-enzymatic cell dissociation buffer (Gibco™, 15040066). The cells were resuspended in assay buffer (AB:HBSS, 0.1% BSA stabilizer, 0.5 mM IBMX, 5 mM HEPES).
(§2) 1,000 cells in 5 μL of AB were seeded per well in a 384 well plate (Corning®, 3570), and stock solutions of test compounds were prepared at a concentration of 1 mM in DMSO and serially diluted in DMSO to the concentration required for the inhibition dose response curve (test concentration range of […]-0.001 nM). […]
(§3) 5 μL of each donor (Eu-cAMP tracer) and acceptor (ULight-anti-cAMP) was added, and the plate was incubated in the dark for 1 hour at room temperature, and then a Varioskan LUX multimode microplate reader was used to obtain the results (excitation: 334 nm, emission: 615 and 665 nm). The resulting FRET fluorescence value (665 nm/615 nm*10000) was converted and then calculated as a percentage of cAMP compared to the DMSO control value. […]

hEP2 = molecular target: T2, hEP2 (Homo sapiens, UniProt P43116); experiment: hEP2 cAMP assay; type: cell-based; details: HEK293 cells overexpressing hEP2; PGE2 400 pM as agonist; median of multiple experiments; read-out: IC50 (nM) EP2 cAMP
T2 construct: expressed in transfected cells; host or cells: HEK293
T2 sequence (P43116 whole entry): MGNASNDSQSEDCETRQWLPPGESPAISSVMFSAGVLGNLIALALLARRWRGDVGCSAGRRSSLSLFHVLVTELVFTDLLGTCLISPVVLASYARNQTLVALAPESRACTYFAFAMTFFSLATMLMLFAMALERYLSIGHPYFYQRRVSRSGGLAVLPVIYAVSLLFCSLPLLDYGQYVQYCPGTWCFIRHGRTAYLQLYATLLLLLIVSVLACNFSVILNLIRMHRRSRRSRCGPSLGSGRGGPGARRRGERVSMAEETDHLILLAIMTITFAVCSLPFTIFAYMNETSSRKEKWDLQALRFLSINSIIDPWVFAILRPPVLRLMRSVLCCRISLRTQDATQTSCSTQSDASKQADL
Procedure: Experimental Example 1.1: hEP2 cAMP Assay
as §1, with “hEP2” for “hEP4”, “hours. The” for “hours.”
as §2
as §3, with “relative” for “compared”

CT26 cells = experiment: Anticancer efficacy in mouse-derived colorectal carcinoma CT26 tumor model (tumor size); type: in vivo
Procedure: Experimental Example 2.1. Evaluation of Anticancer Efficacy of Combination Administration in Mouse-Derived Colorectal Carcinoma Tumor Model: CT26
(§4) CT26 cells were subcultured and maintained in a cell incubator (CO2 incubator) under 37° C., 500 CO2 conditions using RPMI-1640 medium containing 10% FBS (fetal bovine serum). For the tumor animal model, CT26 cells were resuspended at a concentration of 533 10^5 cells/100 μL, and 100 μL per each mouse was transplanted into the subcutaneous region of the right flank of 6 to 7 week-old BALB/c mice (Shanghai Lingchang Biotechnology Co., Ltd, Shanghai) to prepare a CT26 tumor model.
The tumor size was calculated by measuring the short axis and the long axis using a vernier caliper and substituting them into Equation 1 below.
tumor size (volume, mm^3)=(short axis, mm)^2×(long axis, mm)×0.5 [Equation 1]
(§5) When the tumor size reached an average of 70 to 100 mm^3, the mice were randomly divided into groups for the evaluation of drug efficacy (average tumor size per group=79 mm^3). The drug efficacy was evaluated by substituting the measured tumor size into Equation 2 to calculate and compare the tumor growth inhibitory ability between groups.
tumor growth inhibitory ability=[{(control group tumor size at the time of measurement,C)−(control group tumor size at the start of administration,C0)}−{(test group tumor size at the time of measurement,T)−(test group tumor size at the start of administration,T0)}]/{(control group tumor size at the time of measurement,C)−(control group tumor size at the start of administration,C0)} [Equation 2]
Drug administration was carried out for 12 days from the day after the test groups were grouped into a group treated with A01 (Example 34b), a group treated with an anti-PD-1 antibody, an immune checkpoint inhibitor, and a group treated with A01 and an anti-PD-1 antibody in combination. The anti-PD-1 antibody (BioXcell, Cat #BP0146) was diluted in PBS and intraperitoneally administered once every 3 days at a concentration of 200 μg/mouse. […]

[1] = Body weight of mice in CT26 tumor model; type: in vivo, mouse; details: BALB/c mice
Procedure: as §4
(§6) Drug administration was carried out for 12 days from the day after the test groups were grouped into a group treated with A01 (Example 34b), a group treated with an anti-PD-1 antibody, an immune checkpoint inhibitor, and a group treated with A01 and an anti-PD-1 antibody in combination. The anti-PD-1 antibody (BioXcell, Cat #BP0146) was diluted in PBS and intraperitoneally administered once every 3 days at a concentration of 200 μg/mouse. A01 was used as an excipient by adding Tween 80 to 0.5% methycellulose (40000 cp) aqueous solution until it reached 0.2%, and A01 was suspended as an excipient and orally administered daily at a concentration of 150 mg/kg.

MC38 cells = experiment: Anticancer efficacy in mouse-derived colorectal carcinoma MC38 tumor model (tumor size); type: in vivo
Procedure: Experimental Example 2.2. Evaluation of Anticancer Efficacy of Combination Administration in Mouse-Derived Colorectal Carcinoma Tumor Model: MC38
as §4, with “MC38” for “CT26”, “subcultured” for “subcultured and maintained”, “5%” for “500”, “DMEM” for “RPMI-1640”, “1×10^6” for “533 10^5”, “C57B/6” for “BALB/c”
The tumor size was calculated by measuring in the same manner as in Experimental Example 2.1.
as §5, with “size=91” for “size per group=79”, “2 of Experimental Example 2.1” for “2”
as §6, with “18” for “12”, “A02” for “A01”, “1b),” for “34b),”

[2] = Body weight of mice in MC38 tumor model; type: in vivo, mouse; details: C57B/6 mice
Procedure: as §4, with “MC38” for “CT26”, “subcultured” for “subcultured and maintained”, “5%” for “500”, “DMEM” for “RPMI-1640”, “1×10^6” for “533 10^5”, “C57B/6” for “BALB/c”
as §6, with “18” for “12”, “A02” for “A01”, “1b),” for “34b),”

IC50 (hEP4): ≤ 500 nM
SMILES: COc1cc(-c2ccc(Cc3c(C)sc(C)c3C(=O)NC3CC4(C3)CC(C(=O)O)C4)cc2)cc(N2CCC2=O)c1 [Example 63, (2R, 4R, 6R)-6-(4-((3′-methoxy-5′-(2-oxoazetidin-1-yl)-[1,1′-biphenyl]-4-yl)methyl)-2,5-dimethylthiophene-3-carboxamido)spiro[3.3]heptane-2-carboxylic acid]

IC50 (hEP2): > 10000 nM | IC50 (hEP4): > 10000 nM
SMILES: O=C(N[C@]12C[C@](C(=O)O)(C1)C2)c1csc2ccn(Cc3ccc(-c4ccccc4)cc3)c12 [Example 87, 3-(4-([1,1′-biphenyl]-4-ylmethyl)-4H-thieno[3,2-b]pyrrole-3-carboxamido)bicyclo[1.1.1]pentane-1-carboxylic acid]

SMILES: COc1cc(F)cc(-c2ccc(Cc3c(C)sc(C)c3C(=O)NC3CC4(C3)CC(C(=O)O)C4)cc2)c1 (stereo not shown) [Example A01]
tumor growth inhibition rate compared to control group (CT26 cells; 12 days administration, A01 150 mg/kg oral daily, anti-PD-1 antibody 200 μg/mouse i.p. once every 3 days, Equation 2): 38.5% | tumor size at end point of the test (CT26 cells; BALB/c mice, 12 days administration, A01 150 mg/kg oral daily, anti-PD-1 antibody 200 μg/mouse i.p. once every 3 days): 1092.6±237.5 mm^3 | tumor size at start point of the test (CT26 cells; BALB/c mice, start of drug administration): 79.4±2.3 mm^3 | body weight at end point of the test ([1]; 12 days administration, A01 150 mg/kg oral daily, anti-PD-1 antibody 200 μg/mouse i.p. once every 3 days): 22.2 ± 0.6 g | body weight at start point of the test ([1]; start of drug administration): 20.4 ± 0.4 g

SMILES: Cc1sc(C)c(C(=O)NC2CC3(C2)CC(C(=O)O)C3)c1Cc1ccc(-c2ccccc2)cc1 (stereo not shown) [Example A02]
tumor growth inhibition rate compared to control group (MC38 cells; 18 days administration, A02 150 mg/kg oral daily, anti-PD-1 antibody 200 μg/mouse i.p. once every 3 days, Equation 2): 32.7% | tumor size at end point of the test (MC38 cells; C57B/6 mice, 18 days administration, A02 150 mg/kg oral daily, anti-PD-1 antibody 200 μg/mouse i.p. once every 3 days): 1711.0±236.4 mm^3 | tumor size at start point of the test (MC38 cells; C57B/6 mice, start of drug administration): 91.5±3.1 mm^3 | body weight at end point of the test ([2]; 18 days administration, A02 150 mg/kg oral daily, anti-PD-1 antibody 200 μg/mouse i.p. once every 3 days): 22.0 ± 0.4 g | body weight at start point of the test ([2]; start of drug administration): 19.1 ± 0.2 g
